From patent US4362727A, “5-Substituted 9-cyanomethylene-dithieno[3,4-b:4,3-e]-azepines and therapeutic agents which contain these compounds” (priority 1981, dated 1982)

Columns and labels:
[1] = test system: tonic extension reflex in the gastrocnemius; test: Muscle-relaxing action (tonic extension reflex); type: in vivo, rabbits; conditions: rabbit, intravenous; for Muscle relaxation R.E.: clozapine = 1.0
Experimental: 2. […] The rabbit is kept in a special apparatus which allows it to flex its paw at the talocalcanean joint in a defined and reproducible manner. The flexing triggers off a tonic extension reflex in the calf muscles. The electrical activity of the muscle during the contraction is recorded, and the individual pulses are counted. The extension (lasting 5 seconds) is repeated at intervals of one minute. […] The numbers of pulses following the administration are compared with the initial values.

[2] = test system: orientation hypermotility; test: Sedative action (orientation hypermotility); type: in vivo, female NMRI mice; conditions: mice, oral; clozapine = 1.0
Experimental: 4-8 groups each of 3 female NMRI mice are given the compound orally. The orientation hypermotility induced by a new environment is determined photoelectrically, for a period of 30 minutes, starting 30 minutes after administration of the substances.

[3] = test system: pilocarpine-induced scratching movements; test: Anticholinergic action on the central nervous system (pilocarpine); type: in vivo; conditions: rats, intraperitoneal; clozapine = 1.0
Experimental: 4. Anticholinergic action on the central nervous system
To test the anticholinergic action on the central nervous system, cholinergic stimulation is triggered off by pilocarpine. After rapid intravenous injection of pilocarpine.HCl (50 mg/kg) rats display alternating scratching movements of their rear paws; further symptoms triggered off in the central nervous system are jaw movements and tremors. […] The test substances are administered intraperitoneally 30 minutes before pilocarpine. The substance is considered to have an effect if no scratching is observed for a period of 2 minutes after the injection of pilocarpine. For this symptom, the mean inhibition dose (ED50%) is determined, by means of probit analysis by the method of Finney, as the dose of the test substance which suppresses the scratching in half the animals.

[4] = test system: methamphetamine-induced sniffing movements; test: Antimethamphetamine action (methamphetamine antagonism); type: in vivo; conditions: rats, intraperitoneal; clozapine = 1.0
Experimental: 3. Antimethamphetamine action
Methamphetamine.HCl (2.5 mg/kg administered intravenously) regularly causes the following symptoms in rats: motor restlessness, searching and sniffing movements, fur standing on end, and tremor (Janssen et al., Arzneim.-Forsch./Drug Res. 13 (1963), 205; and Randrup et al., Psychopharmacologia 11 (1967), 300). The test substances are administered intraperitoneally 30 minutes before methamphetamine. The substance is considered to have an effect if no sniffing movements are observed for a period of 5 minutes after the injection of methamphetamine. The mean inhibition dose (ED50%) is determined, by means of probit analysis, as the dose which prevents the occurrence of the symptom in half the animals.

Row | Structure (SMILES) | Muscle relaxation R.E. [1] | Sedation R.E. [2] | Anticholinergic action on the central nervous system R.E. [3] | ED50 ([1]; Oryctolagus cuniculus, pulses compared with initial values, read-out: Muscle relaxation ED 50%) [mg/kg] | Methamphetamine antagonism R.E. [4]
1 | CN1CCN(C2=Nc3c(csc3Cl)C(=CC#N)c3cscc32)CC1 (mixture of isomers) [Example 2, Cis/trans-3-chloro-9-cyanomethylene-5-(4-methylpiperazin-1-yl)-dithieno[3,4-b:4',3'-e]azepine] | 0.56 | 0.49 |  |  | 
2 | CN1CCN(C2=Nc3cscc3C(=CC#N)c3cscc32)CC1 [Example 1a, 9-cyanomethylene-5-(4-methyl-piperazin-1-yl)-dithieno[3,4-b:4',3'-e]azepine] | 0.33 | 0.64 | 1.1 |  | 
3 | CN1CCN(C2=Nc3cc(Cl)ccc3Nc3ccccc32)CC1 [Clozapine] | 1.0 | 1.0 | 1.0 | 0.046 | 1.0
4 | CCN1CCN(C2=Nc3cscc3C(=CC#N)c3cscc32)CC1 (mixture of isomers) [Example 6, Cis/trans-9-cyanomethylene-5-(4-ethyl-piperazin-1-yl)dithieno[3,4-b:4',3'-e]azepine] | 0.21 | 0.44 |  |  | 0.88
5 | CN1CCN(C2=Nc3ccccc3Cc3ccccc32)CC1 [Perlapine] | 0.42 |  | 0.22 |  | 1.2
